The values below come from US8669291B2, “Phenyl substituted cycloalkylamines as monoamine reuptake inhibitors” (Sunovion Pharmaceuticals Inc., priority 2007, dated 2014).

The target in data set [1] is T1, human dopamine (DA) reuptake transporter (Homo sapiens, UniProt Q01959).
T1 construct: expressed in transfected cells
In words: functional uptake assay, human DA reuptake transporter. Type of data set: cell-based. The procedure: (§1) Compounds were tested for their inhibition of functional uptake of serotonin (5-HT), norepinephrine (NE), and dopamine (DA), in synaptosomes prepared from rat whole brain, hypothalamus, or corpus striatum, respectively, and/or using recombinant human transporters.

A short description of data set [2]: human metabolic stability (HLM t1/2). Conditions: human liver microsomes. In kind it is in vitro ADME. The text has this: 4b. In Vitro PK Data (Human Metabolic Stability, Inhibition of CYP450 Enzymes, Inhibition of HERG Current)
On the technique in general: Microsomes from liver hold many membrane-bound enzymes, among them those of drug oxidation.

Data set [3] has as its target T2, human serotonin (5-HT) reuptake transporter (Homo sapiens, UniProt P31645).
T2 construct: expressed in transfected cells
In words: functional uptake assay, human 5-HT reuptake transporter. Type of data set: cell-based. The procedure:
as §1

The target in data set [4] is T3, human norepinephrine (NE) reuptake transporter (Homo sapiens, UniProt P23975).
T3 construct: expressed in transfected cells
In words: functional uptake assay, human NE reuptake transporter. In kind it is cell-based. Conditions: read-out: NE IC50. The procedure:
as §1

The conditions of data set [5]: in vivo; cited from earlier work.
In the next data set the target is serotonin uptake sites (Homo sapiens, UniProt P31645). Conditions: cited from earlier work.
[6] abbreviates: Example 4a, human reuptake transporter, read-out: DA IC50.
The mark [7] stands for this setting: Example 6 summary of selected in vitro data, read-out: DA IC50.
Setting [8] is: Example 4a, human reuptake transporter, read-out: 5-HT IC50.
[9] abbreviates: Example 6 summary of selected in vitro data, read-out: 5-HT IC50.
Setting [10] is: Example 4a, human reuptake transporter.
Where [11] appears, read: Example 6 summary of selected in vitro data.

Read-outs that look alike come from different tables or passages of the source.

T3 sequence (P23975 whole entry): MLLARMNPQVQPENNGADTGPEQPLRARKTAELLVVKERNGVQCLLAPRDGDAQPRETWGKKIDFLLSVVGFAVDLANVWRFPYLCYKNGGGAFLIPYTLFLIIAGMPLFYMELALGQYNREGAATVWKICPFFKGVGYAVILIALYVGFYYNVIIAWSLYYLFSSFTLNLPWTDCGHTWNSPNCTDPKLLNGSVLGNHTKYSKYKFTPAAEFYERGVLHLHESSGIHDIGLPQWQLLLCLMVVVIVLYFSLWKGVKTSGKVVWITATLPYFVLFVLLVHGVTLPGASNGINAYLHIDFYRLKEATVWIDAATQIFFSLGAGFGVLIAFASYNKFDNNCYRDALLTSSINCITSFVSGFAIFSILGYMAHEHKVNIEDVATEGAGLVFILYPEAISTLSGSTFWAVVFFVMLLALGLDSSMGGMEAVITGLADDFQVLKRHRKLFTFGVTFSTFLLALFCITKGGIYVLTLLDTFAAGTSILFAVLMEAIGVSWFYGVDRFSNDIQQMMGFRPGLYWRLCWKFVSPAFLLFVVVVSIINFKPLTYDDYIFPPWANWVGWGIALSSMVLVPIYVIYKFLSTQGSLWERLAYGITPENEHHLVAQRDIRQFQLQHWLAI
T1 sequence (Q01959 whole entry): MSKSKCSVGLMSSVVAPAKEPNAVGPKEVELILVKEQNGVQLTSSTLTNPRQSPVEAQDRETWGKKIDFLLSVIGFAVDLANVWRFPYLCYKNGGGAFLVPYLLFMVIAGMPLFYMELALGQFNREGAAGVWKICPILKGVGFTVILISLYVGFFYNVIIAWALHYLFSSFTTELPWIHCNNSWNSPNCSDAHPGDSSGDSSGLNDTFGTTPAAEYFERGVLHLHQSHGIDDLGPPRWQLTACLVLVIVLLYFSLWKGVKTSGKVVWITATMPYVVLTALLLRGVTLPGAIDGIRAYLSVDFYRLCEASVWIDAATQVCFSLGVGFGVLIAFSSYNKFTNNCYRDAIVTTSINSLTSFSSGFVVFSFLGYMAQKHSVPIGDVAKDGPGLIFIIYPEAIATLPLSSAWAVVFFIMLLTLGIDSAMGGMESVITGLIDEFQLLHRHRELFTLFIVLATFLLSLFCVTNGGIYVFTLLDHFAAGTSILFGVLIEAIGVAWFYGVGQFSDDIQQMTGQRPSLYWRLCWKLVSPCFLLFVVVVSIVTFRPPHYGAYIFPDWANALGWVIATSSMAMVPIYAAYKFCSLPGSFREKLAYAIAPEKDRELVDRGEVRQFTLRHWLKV
T2 sequence (P31645 whole entry): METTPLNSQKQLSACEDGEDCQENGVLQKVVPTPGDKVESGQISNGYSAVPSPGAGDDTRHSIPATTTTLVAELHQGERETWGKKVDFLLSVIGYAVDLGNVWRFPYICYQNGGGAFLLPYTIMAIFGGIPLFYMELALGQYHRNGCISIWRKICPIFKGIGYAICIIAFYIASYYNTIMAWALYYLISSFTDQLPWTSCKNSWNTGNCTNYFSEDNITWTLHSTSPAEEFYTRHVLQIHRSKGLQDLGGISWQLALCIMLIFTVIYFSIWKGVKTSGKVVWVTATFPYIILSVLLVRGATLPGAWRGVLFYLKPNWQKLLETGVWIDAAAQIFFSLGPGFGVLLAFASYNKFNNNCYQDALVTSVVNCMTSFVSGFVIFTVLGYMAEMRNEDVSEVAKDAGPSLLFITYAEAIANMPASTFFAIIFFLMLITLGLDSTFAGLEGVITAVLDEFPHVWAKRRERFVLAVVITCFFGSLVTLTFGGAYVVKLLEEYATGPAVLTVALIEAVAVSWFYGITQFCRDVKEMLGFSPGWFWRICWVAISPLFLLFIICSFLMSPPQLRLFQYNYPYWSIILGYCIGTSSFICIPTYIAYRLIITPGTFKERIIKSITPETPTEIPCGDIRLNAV
Sequence of serotonin uptake sites (P31645 whole entry): as above

As to `CN(C)C[C@H]1CCCC[C@]1(O)c1ccc(Cl)c(Cl)c1` (single isomer, unassigned) [Compound 1, cis-1-(3,4-dichlorophenyl)-2-((dimethylamino)methyl)cyclohexanol], the half-maximal inhibitory concentration (IC50) (usually the concentration that gives 50% inhibition) in data set [1] (setting [6]) was in the range of 201 to 1000 nM; in data set [1] (setting [7]) it was 201 to 1000 nM; in data set [3] (setting [8]) it was 1 to 2000 nM; in data set [3] (setting [9]) it was 1 to 2000 nM; in data set [4] (setting [10]), 201 to 1000 nM; in data set [4] (setting [11]), 201 to 1000 nM. Further, the half-life (usually the time needed for the level to fall by half in the phase considered) in data set [2] was in the range of 0.417 to 2.92 h.

As to `CNC[C@]1(C)CCCC[C@@]1(O)c1ccc(Cl)c(Cl)c1` [Compound 16 A/B], the results for the IC50 in data set [1] (setting [7]), in data set [3] (setting [9]) and in data set [4] (setting [11]) were 10 to 200 nM, 1 to 2000 nM and above 5000 nM, respectively.

On to `C[C@@]1(CN)CCCC[C@@]1(O)c1ccc(Cl)c(Cl)c1` [Compound 15 A/B], for which the results for the IC50 in data set [1] (setting [7]), in data set [3] (setting [9]) and in data set [4] (setting [11]) were 201 to 1000 nM, 2000 to 7000 nM and above 5000 nM, respectively.

As to `CN(C)C[C@]1(C)CCCC[C@@]1(O)c1ccc(Cl)c(Cl)c1` [Compound 17 A/B], the IC50 was 201 to 1000 nM in data set [1] (setting [7]), 2000 to 7000 nM in data set [3] (setting [9]) and above 5000 nM in data set [4] (setting [11]).

As for `NC[C@@H]1CCCC[C@@]1(O)c1ccc(Cl)c(Cl)c1` (relative stereo) [Compound 9, cis-2-(aminomethyl)-1-(3,4-dichlorophenyl)cyclohexanol], the IC50 in data set [1] (setting [6]) is 10 to 200 nM; in data set [1] (setting [7]) it was 10 to 200 nM; in data set [3] (setting [8]) it was above 10000 nM; in data set [3] (setting [9]), above 10000 nM; in data set [4] (setting [10]) it was 1000 to 5000 nM; in data set [4] (setting [11]) it was 1000 to 5000 nM.

With `NC[C@]1(F)CCCC[C@@]1(O)c1ccc(Cl)c(Cl)c1` [Compound 21 A/B], the IC50 is 10 to 200 nM in data set [1] (read-out: DA IC50 nM, Example 6 summary of selected in vitro data); 1 to 2000 nM in data set [3] (read-out: 5-HT IC50 nM, Example 6 summary of selected in vitro data); above 5000 nM in data set [4] (setting [11]).

In the case of `NCC1CCCCC1(O)c1ccc(Cl)c(Cl)c1` (single isomer, unassigned) [Compound 8, cis-2-(aminomethyl)-1-(3,4-dichlorophenyl)cyclohexanol], the IC50 in data set [1] (setting [6]) was 201 to 1000 nM; in data set [1] (setting [7]) it was 201 to 1000 nM; in data set [3] (setting [8]), 7000 to 10000 nM; in data set [3] (setting [9]), 7000 to 10000 nM; in data set [4] (setting [10]), above 5000 nM; in data set [4] (setting [11]), above 5000 nM.

Turning to `CN(C)C[C@]1(F)CCCC[C@@]1(O)c1ccc(Cl)c(Cl)c1` [Compound 23 A/B], the IC50 is 201 to 1000 nM in data set [1] (setting [7]), 2000 to 7000 nM in data set [3] (setting [9]) and above 5000 nM in data set [4] (setting [11]).

Take `Clc1ccc([C@@]23CNC[C@@H]2C3)cc1Cl` (single isomer, unassigned) [DOV 21,947, (+)-1-(3,4-dichlorophenyl)-3-azabicyclo[3.1.0]hexane]: the “immobility in the tail suspension test” value in data set [5] was “dose-dependent reduction in immobility”. In addition, the “affinity for the serotonin uptake sites versus the racemic compound” value on serotonin uptake sites is “significantly greater affinity”.
